Patent US5457106A, “Pyridine derivatives, their production and use” (Takeda Chemical Industries, Ltd., priority 1991, dated 1995)
Like-named read-outs stand apart in the source and are kept apart here.

Key:
[1] = tested on: ART (antigen-responding T-cell); experiment: In vitro ART (antigen-responding T-cell) proliferation test; assay type: cell-based, Lewis rat; conditions: Rattus norvegicus, T-cell, read-out: % Inhibition of ART growth
[2] = tested on: ELAM-1; experiment: Adhesion protein expression inhibitory activity, ELAM-1; assay type: cell-based; conditions: 13 μM, human umbilical vascular endothelial cells, TNF-α; 180 min
Protocol: Adhesion Protein Expression Inhibitory Activity The various concentrations of test compounds were added to the human umbilical cord-derived vascular endothelial cells [sold by Klabo] which were seeded in the gelatin coat plate and the mixture was incubated at 37° C. for 15 minutes. Then, the human tumor necrosis factor-α[TNF-α; sold by Genzyme] was added therein to the final concentration of 1 ng/ml and incubation was carried out at 37° C. for 3 hours for expression of ELAM-1 and for 6 hours for that of ICAM-I. After the reaction, the cells were fixed using glutaraldhyde and the expression amount of ELAM-1 and ICAM-1 was measured by the cell-ELISA method. That is, the expression was determined by […] the adhesion proteins on the cells in the system using anti-ELAM-1 antibody BBA-2 and anti-ICAM-1 antibody BBA4 as the first antibody as well as horseradish peroxidase-labeled rabbit anti-mouse IgG antibody as the second antibody.

[3] = tested on: ICAM-1; experiment: Adhesion protein expression inhibitory activity, ICAM-1; assay type: cell-based; conditions: human umbilical vascular endothelial cells, TNF-α, 360 min
How it was run: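 HUVECs pre-incubated with test compounds 15 minutes at 37° C., then stimulated with TNF-α at 1 ng/ml final for 3 hours (ELAM-1) or 6 hours (ICAM-1). Surface expression measured on glutaraldehyde-fixed cells by cell-ELISA using anti-ELAM-1 BBA-2 or anti-ICAM-1 BBA4 and HRP-labelled anti-mouse IgG.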

[4] = tested on: acute renal failure induced by renal ischemia followed by reperfusion in rats; experiment: Effect on acute renal failure induced by renal ischemia-reperfusion; assay type: in vivo, rat (Sprague-Dawley); conditions: 50 mg/kg, orally, 20 hours of reperfusion
Protocol: Effect On Acute Renal Failure Induced By Renal Ischemia-Reperfusion Male Sprague-Dawley rats (6 to 7 weeks old) were anesthetized using pentobarbital sodium (50 mg/kg, i.p.) and bilateral renal arteries were completely occluded for 45 minutes followed by reperfusion. After 20 hours of the reperfusion, the blood was collected from the abdominal aorta under anesthesia and the blood urea nitrogen (BUN) was determined.

[5] = target: T1, 5-Lipoxygenase (Rattus norvegicus, UniProt P12527); experiment: 5-Lipoxygenase inhibitory activity in rat basophilic leukemia cells; assay type: cell-based
T1 construct: rat basophilic leukemia cell suspension; endogenous in cells
T1 sequence (P12527 1-673): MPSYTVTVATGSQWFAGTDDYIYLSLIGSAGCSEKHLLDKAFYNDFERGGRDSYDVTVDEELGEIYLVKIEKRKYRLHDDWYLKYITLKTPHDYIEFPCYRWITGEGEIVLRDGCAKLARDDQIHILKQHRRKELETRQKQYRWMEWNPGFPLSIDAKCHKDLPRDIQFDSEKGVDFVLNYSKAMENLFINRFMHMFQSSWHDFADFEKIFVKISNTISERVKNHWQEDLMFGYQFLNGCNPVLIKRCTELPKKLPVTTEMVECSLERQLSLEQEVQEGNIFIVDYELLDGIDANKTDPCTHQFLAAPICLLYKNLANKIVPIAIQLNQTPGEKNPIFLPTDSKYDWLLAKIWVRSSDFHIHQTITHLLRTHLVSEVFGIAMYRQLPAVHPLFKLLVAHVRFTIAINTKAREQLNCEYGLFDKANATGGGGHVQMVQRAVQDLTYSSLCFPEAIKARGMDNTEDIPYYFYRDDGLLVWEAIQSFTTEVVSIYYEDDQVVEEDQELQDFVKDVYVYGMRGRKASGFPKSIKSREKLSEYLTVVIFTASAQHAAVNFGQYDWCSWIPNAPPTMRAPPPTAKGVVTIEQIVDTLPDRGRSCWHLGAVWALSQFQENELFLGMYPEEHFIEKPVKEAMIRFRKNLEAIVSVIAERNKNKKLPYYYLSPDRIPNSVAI
Protocol: 5-Lipoxygenase Inhibitory Activity […] Then, 0.1 ml of mast cell medium containing 50 μg of arachidonic acid and 1 μg of calcium ionophore (A-23187) were added and the mixture was allowed to stand at 37° C. for 15 minutes. Ethanol (1 ml) was added thereto and the mixture was shaken well, and filtered (Membrane filter, 0.45 μm). […] As a control, the measurement was carried out according to the same manner except that 0.01 ml of the solvent used for dissolving the test compound was used in place of the test compound. The inhibitory percentage (%) was calculated from the following equation to obtain IC50.

[6] = tested on: Mouse acetic acid writhing; experiment: Mouse acetic acid writhing inhibitory activity; assay type: in vivo, mouse (Slc: ICR); conditions: Mus musculus, po, 20 min, orally, read-out: Inhibitory percentage (acetic acid writhing)
How it was run: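 Male ICR mice, 4 weeks old, 10 per group, dosed orally (suspension in 5% gum arabic). After 30 min, 0.6% acetic acid given i.p. and writhing counted for 20 min. Percent inhibition calculated per animal against mean control response.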

[7] = target: T2, cyclooxygenase (Rattus norvegicus, UniProt Q63921); experiment: Cyclooxygenase inhibitory activity (HHT formation from arachidonic acid in rat platelet-rich plasma); assay type: cell-based, rat (Jcl:wistar)
T2 construct: from tissue; host or cells: platelets in platelet-rich plasma from rat abdominal aorta blood (Jcl:wistar, male)
T2 sequence (Q63921 27-602): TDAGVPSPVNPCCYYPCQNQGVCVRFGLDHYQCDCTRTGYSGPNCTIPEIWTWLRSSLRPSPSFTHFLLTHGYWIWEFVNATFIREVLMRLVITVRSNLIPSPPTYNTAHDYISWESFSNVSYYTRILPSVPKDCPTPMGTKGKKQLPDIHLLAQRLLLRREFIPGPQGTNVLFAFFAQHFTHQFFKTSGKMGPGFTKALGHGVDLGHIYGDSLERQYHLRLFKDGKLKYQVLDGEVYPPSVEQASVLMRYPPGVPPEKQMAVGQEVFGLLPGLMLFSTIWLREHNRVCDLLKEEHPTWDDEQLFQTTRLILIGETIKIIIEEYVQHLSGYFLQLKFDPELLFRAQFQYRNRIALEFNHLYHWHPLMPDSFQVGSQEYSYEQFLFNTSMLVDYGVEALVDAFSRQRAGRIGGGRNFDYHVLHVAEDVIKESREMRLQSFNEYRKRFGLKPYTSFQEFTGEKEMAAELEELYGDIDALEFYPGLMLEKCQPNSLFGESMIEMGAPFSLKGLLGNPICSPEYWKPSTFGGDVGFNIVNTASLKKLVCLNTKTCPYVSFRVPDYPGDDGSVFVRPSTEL

[8] = tested on: Mouse phenylquinone writhing; experiment: Mouse phenylquinone writhing inhibitory activity; assay type: in vivo, mouse (Slc: ICR); conditions: Mus musculus, po, 20 min, 50 mg/kg, orally; read-out: Inhibitory percentage (phenylquinone writhing)
How it was run: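 Male ICR mice (4 weeks, 17–24 g) dosed orally with compound suspended in 5% gum arabic. After 30 min, 0.02% phenylquinone (0.1 ml/10 g) given i.p.; writhing and stretching responses counted over 20 min.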

[9] = tested on: brewer's yeast induced pyrexia; experiment: Antipyretic activity (brewer's yeast induced pyrexia); assay type: in vivo, rat (DS line); conditions: 50 mg/kg, orally
How it was run: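 Male DS rats (7 weeks, 200-240 g) made febrile by s.c. 15% brewer's yeast 18 h before dosing; only animals at ≥38.5° C used. Compound given orally versus solvent control, with rectal temperature taken by thermistor hourly for 5 h post-dose.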

[10] = tested on: Rat adjuvant arthritis; experiment: Activity to rat adjuvant arthritis; assay type: in vivo, rat (SD or Lewis); conditions: 50 mg/kg, day 0 to day 13

SMILES | inhibition at 1 µM [1] | inhibition at 10 µM [1] | Expression Inhibitory Potency, ELAM-1 [2] | Expression Inhibitory Potency, ICAM-1 ([3]; 13 μM) | Blood urea nitrogen [4] | IC50 ([5]; 5-HETE, read-out: 5-Lipoxygenase inhibitory activity, 5-HETE IC50) | IC50 ([5]; LTB4, read-out: 5-Lipoxygenase inhibitory activity, LTB4 IC50) | inhibition in vivo at 50 mg/kg [6] | Expression Inhibitory Potency, ICAM-1 ([3]; 30 μM) | IC50 [7] | inhibition in vivo at 50 mg/kg [8] | Antipyretic activity, peak time [9] | Antipyretic activity, .increment. °C. ([9]; at peak time) | Swelling inhibitory percentage [10]
CCCC=C1SC(=O)N(CCCCSc2ccncc2)C1=O [Example 171, 4-[4-(5-propylmethylene-2,4-thiazolidinedione)butylthio]pyridine] | 96% | 41% | 94% | 75% | 64 ± 11 mg/dL | – | – | – | – | – | – | – | – | –
O=C1SC(=Cc2ccccc2)C(=O)N1CCCCSc1ccncc1 [Example 150, 4-[4-(5-benzylidene-2,4-thiazolidinedione)butylthio]pyridine] | -31% | 75% | – | – | 76.8 ± 16.9 mg/dL | 2.6 µM | 2.5 µM | 54% | 94% | – | – | – | – | –
Cl.O=C(N(CCCSc1ccncc1)Cc1ccccc1)C(F)(F)F [Example 73, 4-[3-(N-benzyl-N-trifluoroacetylamino)propylthio]pyridine hydrochloride] | 23% | 82% | – | – | 68 ± 3 mg/dL | – | – | – | 42% | 2.8 µM | 75% | 2 h | -0.65 °C | 52%
O=C1SC(=Cc2cccs2)C(=O)N1CCCCSc1ccncc1 [Example 157, 4-[4-[5-(2-thienylmethylene)-2,4-thiazolidinedione]butylthio]pyridine] | -50% | 62% | – | – | 62.4 ± 7.0 mg/dL | – | – | – | 78% | – | – | – | – | –
